Results published in patent publication US20080064871A1, “Production Method of Nitrogen-Containing Fused Ring Compounds” (Japan Tobacco Inc., priority 2006, published 2008).

target: T1, human URAT1 (Homo sapiens, UniProt Q96S37); experiment: Uric acid transport inhibitory test using human URAT1-expressing cells; assay type: cell-based; conditions: human URAT1 expressing HEK293 cells, uptake of 14C-labeled uric acid for 5 min, room temperature; read-out: hURAT1 (IC50, concentration necessary for inhibiting the uric acid transport rate by 50%)
T1 construct: Human URAT1 full length cDNA was subcloned to expression vector pcDNA3.1; expressed in transfected cells; host or cells: HEK293 cells (pcDNA3.1, geneticin-selected)
T1 sequence (Q96S37 1-553): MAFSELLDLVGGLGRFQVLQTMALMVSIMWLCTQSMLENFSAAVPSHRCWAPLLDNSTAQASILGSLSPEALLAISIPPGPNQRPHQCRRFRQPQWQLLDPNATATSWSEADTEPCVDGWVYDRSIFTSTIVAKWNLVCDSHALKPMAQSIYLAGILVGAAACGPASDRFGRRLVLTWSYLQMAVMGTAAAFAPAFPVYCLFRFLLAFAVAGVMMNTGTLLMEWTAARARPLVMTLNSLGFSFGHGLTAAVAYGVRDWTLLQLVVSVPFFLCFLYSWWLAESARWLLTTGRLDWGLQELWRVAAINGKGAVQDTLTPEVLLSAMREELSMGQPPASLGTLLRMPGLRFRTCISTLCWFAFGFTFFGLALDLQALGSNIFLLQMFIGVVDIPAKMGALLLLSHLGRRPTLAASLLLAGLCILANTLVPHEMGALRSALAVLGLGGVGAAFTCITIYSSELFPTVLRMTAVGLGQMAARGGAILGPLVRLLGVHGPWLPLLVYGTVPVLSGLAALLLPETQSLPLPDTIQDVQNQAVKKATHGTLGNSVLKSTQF
From the text: Reference Experimental Example 1 Uric Acid Transport Inhibitory Test Using Human Urat1-Expressing Cells
Human URAT1 full length cDNA was subcloned to expression vector pcDNA3.1 and human URAT1 gene was transfected into human embryonic kidney derived cell line (HEK293 cells) by liposome method using Lipofectamine2000. Simultaneously, HEK293 cells transfected with expression vector pcDNA3.1 alone (hereinafter mock cells) were also produced. HEK293 cells expressing human URAT1 gene or mock cells were selected with geneticin resistance as an index. The functional expression of human URAT1 gene was confirmed by a method similar to the following method, using transport of uric acid labeled with ^14C into the cells as an index.
Human URAT1 expressing HEK293 cells or mock cells were cultured in Dulbecco's modified Eagle's MEM medium (high glucose) containing 10% fetal bovine serum, 0.5 mg/mL geneticin sulfate, 100 units/mL penicillin and 100 μg/mL streptomycin under the conditions of 37° C. and 5% CO2 in an incubator. The cells were plated in a 96 well plate (poly-D-Lysine coated) at 1×10^5 cells/well and the following uric acid transport inhibitory test was performed 24 hr later. This test was performed at room temperature.
After the medium was removed by aspiration from each well, the cells were washed once with Hank's Balanced Salt Solution (HBSS) and preincubated with HBSS ([…]) for 5 min. HBSS was aspirated and an assay buffer (wherein NaCl in the above-mentioned HBSS had been substituted with Na-gluconate) containing various concentrations of the Example compound and a radioactive ligand (uric acid labeled with 14C; final concentration […]) was added to each well at […] and an uptake reaction was carried out for 5 min. After the reaction, the cells were washed twice with ice-cold HBSS ([…]), and Microscin ti TM 20 (PerkinElmer) was added at […]. The cells were lysed by stirring and the radioactivity of each well was measured in a liquid scintillation counter (TOP COUNT, Packard).
The uric acid transport rate (%) of the Example compound at each concentration was calculated relative to the radioactivity (difference in radioactivity between human URAT1 expressing HEK293 cells and mock cells without addition of Example compound (DMSO addition)) showing URAT1 specific uric acid transport as 100%, and the concentration (IC50) of the Example compound necessary for inhibiting the uric acid transport rate by 50% was determined. In Table-Table, “+++” means IC50 value of less than 100 nM, “++” means IC50 value of 100 nM to less than 1000 nM, and “+” means IC50 value of 1000 nM to less than 3000 nM.

IC50 | SMILES
100 to 1000 nM | Cc1cc(C(=O)N2CCOc3ccccc32)cc(C)c1O [Example 7, (2,3-dihydrobenzo[1,4]oxazin-4-yl)-(4-hydroxy-3,5-dimethylphenyl)-methanone]
100 to 1000 nM | O=C(c1cc(Cl)c(O)c(Cl)c1)N1CCOc2cc(O)ccc21 [Example 20, (3,5-dichloro-4-hydroxyphenyl)-(7-hydroxy-2,3-dihydrobenzo[1,4]oxazin-4-yl)-methanone]
100 to 1000 nM | O=C(c1cc(Cl)c(O)c(Cl)c1)N1CCOc2c(O)cccc21 [Example 90, (3,5-dichloro-4-hydroxyphenyl)-(8-hydroxy-2,3-dihydrobenzo[1,4]oxazin-4-yl)-methanone]
< 100 nM | O=C(c1cc(Cl)c(O)c(Cl)c1)N1CCOc2cccc(O)c21 [Example 89, (3,5-dichloro-4-hydroxyphenyl)-(5-hydroxy-2,3-dihydrobenzo[1,4]oxazin-4-yl)-methanone]
1000 to 3000 nM | CN(C)S(=O)(=O)c1ccc2c(c1)N(C(=O)c1cc(Cl)c(O)c(Cl)c1)CCO2 [Example 35, 4-(3,5-dichloro-4-hydroxybenzoyl)-3,4-dihydro-2H-benzo[1,4]oxazine-6-sulfonic acid dimethylamide]
1000 to 3000 nM | O=C(c1cc(Cl)c(O)c(Cl)c1)N1CCOc2ccc(-c3ccccc3)cc21 [Example 65, (3,5-dichloro-4-hydroxyphenyl)-(6-phenyl-2,3-dihydrobenzo[1,4]oxazin-4-yl)-methanone]
< 100 nM | O=C(c1cc(Br)c(O)c(Br)c1)N1CCOc2ccc([N+](=O)[O-])cc21 [Example 69, (3,5-dibromo-4-hydroxyphenyl)-(6-nitro-2,3-dihydrobenzo[1,4]oxazin-4-yl)-methanone]
< 100 nM | Oc1c(Cl)cc(C(=S)N2CCOc3ccccc32)cc1Cl [Example 11, (3,5-dichloro-4-hydroxyphenyl)-(2,3-dihydrobenzo[1,4]oxazin-4-yl)-methanethione]
100 to 1000 nM | O=C(c1cc(Cl)c(O)c(Cl)c1)N1CCOc2ccc(S(=O)(=O)N3CCCC3)cc21 [Example 33, (3,5-dichloro-4-hydroxyphenyl)-[6-(pyrrolidine-1-sulfonyl)-2,3-dihydrobenzo[1,4]oxazin-4-yl]-methanone]
1000 to 3000 nM | COC(=O)c1cccc2c1OCCN2C(=O)c1cc(Cl)c(O)c(Cl)c1 [Example 61, methyl 4-(3,5-dichloro-4-hydroxybenzoyl)-3,4-dihydro-2H-benzo[1,4]oxazine-8-carboxylate]
< 100 nM | O=C(c1cc(Cl)c(O)c(Cl)c1)N1CCOc2ccccc21 [Example 3, (3,5-dichloro-4-hydroxyphenyl)-(2,3-dihydrobenzo[1,4]oxazin-4-yl)-methanone]
< 100 nM | O=C(c1cc(Br)c(O)c(Br)c1)N1CCOc2ccc3ccccc3c21 [Example 80, (3,5-dibromo-4-hydroxyphenyl)-(2,3-dihydronaphtho[2,1-b][1,4]oxazin-1-yl)-methanone]
100 to 1000 nM | O=C(c1cc(Cl)c(O)c(Cl)c1)N1CCS(=O)(=O)c2ccccc21 [Example 10, (3,5-dichloro-4-hydroxyphenyl)-(1,1-dioxo-2,3-dihydro-1H-1λ^6-benzo[1,4]thiazin-4-yl)-methanone]
100 to 1000 nM | O=C(c1cc(Cl)c(O)c(Cl)c1)N1CCCOc2ccccc21 [Example 95, (3,5-dichloro-4-hydroxyphenyl)-(7,8-dihydro-6H-5-oxa-9-azabenzocyclohepten-9-yl)-methanone]
100 to 1000 nM | COC(=O)c1ccc2c(c1)N(C(=O)c1cc(Cl)c(O)c(Cl)c1)CCO2 [Example 55, methyl 4-(3,5-dichloro-4-hydroxybenzoyl)-3,4-dihydro-2H-benzo[1,4]oxazine-6-carboxylate]
100 to 1000 nM | O=C(c1cc(Cl)c(O)c(Cl)c1)N1CCOc2cc([N+](=O)[O-])ccc21 [Example 70, (3,5-dichloro-4-hydroxyphenyl)-(7-nitro-2,3-dihydrobenzo[1,4]oxazin-4-yl)-methanone]

IC50 | SMILES
1000 to 3000 nM | O=C(c1cc(Cl)c(O)c(Cl)c1)N1c2ccccc2Oc2ccccc21 [Example 64, (3,5-dichloro-4-hydroxyphenyl)-phenoxazin-10-ylmethanone]
100 to 1000 nM | Nc1ccc2c(c1)CCN2C(=O)c1cc(Cl)c(O)c(Cl)c1 [Example 78, (5-amino-2,3-dihydroindol-1-yl)-(3,5-dichloro-4-hydroxyphenyl)-methanone]
1000 to 3000 nM | Nc1ccc2c(c1)OCCN2C(=O)c1cc(Cl)c(O)c(Cl)c1 [Example 71, (7-amino-2,3-dihydrobenzo[1,4]oxazin-4-yl)-(3,5-dichloro-4-hydroxyphenyl)-methanone]
< 100 nM | O=C(c1ccc(O)c(Br)c1)N1CCOc2ccccc21 [Example 2, (3-bromo-4-hydroxyphenyl)-(2,3-dihydrobenzo[1,4]oxazin-4-yl)-methanone]
< 100 nM | O=C(c1cc(Br)c(O)c(Br)c1)N1CCOc2ccccc21 [Example 4, (3,5-dibromo-4-hydroxyphenyl)-(2,3-dihydrobenzo[1,4]oxazin-4-yl)-methanone]
100 to 1000 nM | O=C(c1cc(Cl)c(O)c(Cl)c1O)N1CCOc2ccccc21 [Example 50, (3,5-dichloro-2,4-dihydroxyphenyl)-(2,3-dihydrobenzo[1,4]oxazin-4-yl)-methanone]
100 to 1000 nM | COC(=O)c1cccc2c1N(C(=O)c1cc(Cl)c(O)c(Cl)c1)CCO2 [Example 58, methyl 4-(3,5-dichloro-4-hydroxybenzoyl)-3,4-dihydro-2H-benzo[1,4]oxazine-5-carboxylate]
100 to 1000 nM | CC(=O)N1CCN(C(=O)c2cc(Cl)c(O)c(Cl)c2)c2ccccc21 [Example 73, 1-[4-(3,5-dichloro-4-hydroxybenzoyl)-3,4-dihydro-2H-quinoxalin-1-yl]-ethanone]
< 100 nM | O=C(c1cc(Br)c(O)c(Br)c1)N1CCOc2ccc(F)cc21 [Example 79, (3,5-dibromo-4-hydroxyphenyl)-(6-fluoro-2,3-dihydrobenzo[1,4]oxazin-4-yl)-methanone]
< 100 nM | Cc1ccc2c(c1)N(C(=O)c1cc(Br)c(O)c(Br)c1)CCO2 [Example 81, (3,5-dibromo-4-hydroxyphenyl)-(6-methyl-2,3-dihydrobenzo[1,4]oxazin-4-yl)-methanone]
100 to 1000 nM | CN1CCN(C(=O)c2cc(Cl)c(O)c(Cl)c2)c2ccccc21 [Example 74, (3,5-dichloro-4-hydroxyphenyl)-(4-methyl-3,4-dihydro-2H-quinoxalin-1-yl)-methanone]
100 to 1000 nM | CC(=O)Oc1c(Cl)cc(C(=O)N2CCOc3ccccc32)cc1Cl [Example 87, 2,6-dichloro-4-(2,3-dihydrobenzo[1,4]oxazine-4-carbonyl)-phenyl acetate]
100 to 1000 nM | O=C(c1cc(Cl)c(O)c(Cl)c1)N1CCOc2ccc(O)cc21 [Example 19, (3,5-dichloro-4-hydroxyphenyl)-(6-hydroxy-2,3-dihydrobenzo[1,4]oxazin-4-yl)-methanone]
< 100 nM | O=C(c1cc(Cl)c(O)c(Cl)c1)N1CCOc2ccc(C(F)(F)F)cc21 [Example 85, (3,5-dichloro-4-hydroxyphenyl)-(6-trifluoromethyl-2,3-dihydrobenzo[1,4]oxazin-4-yl)-methanone]
100 to 1000 nM | O=C(c1cc(Cl)c(O)c(Cl)c1)N1CCOc2cccnc21 [Example 36, (3,5-dichloro-4-hydroxyphenyl)-(2,3-dihydropyrido[3,2-b][1,4]oxazin-4-yl)-methanone]
